According to ChEMBL document CHEMBL4033770, “Importance of a 4-Alkyl Substituent for Activity in the Englerin Series” (2017):

Columns and labels:
Type in all cases: functional
[1] = system: UO-31; experiment: Growth inhibition of human UO31 cells incubated for 48 hrs by SRB assay; settings: UO-31, 48 h
[2] = system: ACHN; experiment: Growth inhibition of human ACHN cells incubated for 48 hrs by SRB assay
[3] = system: Hs-578T; experiment: Growth inhibition of human Hs 578T cells incubated for 48 hrs by SRB assay
[4] = system: A498; experiment: Growth inhibition of human A498 cells incubated for 48 hrs by SRB assay; settings: A498, 48 h

Row | Compound | GI50 [1] [nM] | GI50 [2] [nM] | GI50 [3] [nM] | GI50 [4] [nM]
1 | CC[C@@H]1CC[C@@H]2[C@@H]1[C@H](OC(=O)/C=C/c1ccccc1)[C@@]1(C(C)C)C[C@@H](OC(=O)CO)[C@]2(C)O1 | 19 | 13 | 4.1 | 38
2 | CC(C)[C@]12C[C@@H](OC(=O)CO)[C@](C)(O1)[C@@H]1CCC[C@H]1[C@@H]2OC(=O)/C=C/c1ccccc1 | 182 | 162 | 31 | 123
3 | CC(C)[C@@H]1CC[C@@H]2[C@@H]1[C@H](OC(=O)/C=C/c1ccccc1)[C@@]1(C(C)C)C[C@@H](OC(=O)CO)[C@]2(C)O1 | 11 | 8.3 | 3.2 | 8.1
